From patent EP4786487A1, “PEPTIDE” (Peptidream Inc, priority 2023, dated 2025)
Where two headings read alike, the source gives them in different places. Starred links: 1 amine or outer side, 2 acyl side, 3 side chain; linkers in the order of their positions; H or OH if unused. Positions of bridges follow the written chain, without caps; N, C: chain ends. Non-standard residues stand in square brackets, D forms with d. Residues, ends and D or L forms follow the SMILES beside them. Groups on a side chain read outwards from the residue. *: point of attachment. Phe(3-OCH2COOH) = N[C@@H](Cc1cccc(OCC(=O)O)c1)C(=O)O; Phe(4-COOH) = N[C@@H](Cc1ccc(C(=O)O)cc1)C(=O)O; X14 = CCc1cccc(C[C@@H](C(=O)[*:2])N(C)[*:1])c1; Piperazinyl(4-CH2COOH) = O=C(O)CN1CCN(*)CC1; Bip = N[C@@H](Cc1ccc(-c2ccccc2)cc1)C(=O)O; Gly(decyl) = CCCCCCCCCC[C@H](N)C(=O)O; Gly(N(CH2)3COOH) = O=C(O)CCCNCC(=O)O; NMe4Pal = CN[C@@H](Cc1ccncc1)C(=O)O; NMeY = CN[C@@H](Cc1ccc(O)cc1)C(=O)O; X1 = CCCCCCC[C@H](N[*:1])C(=O)[*:2]; NMeF = CN[C@@H](Cc1ccccc1)C(=O)O; 3Pal = N[C@@H](Cc1cccnc1)C(=O)O; 4Pal = N[C@@H](Cc1ccncc1)C(=O)O; NMeE = CN[C@@H](CCC(=O)O)C(=O)O; Cha = N[C@@H](CC1CCCCC1)C(=O)O; Ahp(2) = CCCCC[C@H](N)C(=O)O; NMeA = CN[C@@H](C)C(=O)O; Dap = NC[C@H](N)C(=O)O; CO = O=C([*:1])[*:2]; Sar = CNCC(=O)O

Tests used:
Myostatin = target: T1, Myostatin (Homo sapiens, UniProt O14793); experiment: HepG2 reporter gene assay, Evaluation Procedure (2): 2-concentrations assay, myostatin inhibition; assay type: cell-based; details: HepG2
T1 construct: active myostatin (also called mature myostatin) is a homodimer consisting of two C-terminal growth factor domains; purchased R&D systems 788-G8/CF
T1 sequence (O14793 267-375): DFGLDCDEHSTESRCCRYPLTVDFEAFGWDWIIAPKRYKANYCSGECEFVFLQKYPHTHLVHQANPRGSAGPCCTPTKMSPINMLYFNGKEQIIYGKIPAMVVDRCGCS
Procedure, shortened: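 HepG2 cells (HB-8065, ATCC) carrying the transfected pGL3(CAGA)12-luc reporter plasmid were treated with myostatin (788-G8/CF, R&D systems) at a final concentration of 10 ng/mL plus peptide and incubated at 37°C, 5% CO2 for 20 to 24 hours. Luminescence was read after adding PBS mixed 1:1 with One-Glo substrate, and inhibition rate was calculated.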

GDF-11 = target: T2, GDF-11 (Homo sapiens, UniProt O95390); experiment: HepG2 reporter gene assay, Evaluation Procedure (2): 2-concentrations assay, GDF-11 inhibition; assay type: cell-based; details: for inhibition at 0.03 µM: HepG2, peptide 30nM, read-out: GDF11 Inhibition 30nM; for inhibition at 0.03 µM / inhibition at 0.1 µM: GDF-11 10 ng/mL; for inhibition at 0.1 µM: HepG2, peptide 100nM, read-out: GDF11 Inhibition 100nM; for inhibition: read-out: inhibition rate (GDF-11 inhibition assay)
T2 construct: purchased R&D systems 1958-GD-G8/CF
T2 sequence (O95390 299-407): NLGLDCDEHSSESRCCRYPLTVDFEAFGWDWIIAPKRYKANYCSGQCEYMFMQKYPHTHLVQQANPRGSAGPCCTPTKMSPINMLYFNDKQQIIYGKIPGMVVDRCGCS
Procedure, shortened: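 HepG2 cells carrying the transfected pGL3(CAGA)12-luc reporter, a pGL3 vector with luciferase placed downstream of 12 CAGA repeats, were stimulated with GDF-11 at a final 10 ng/mL together with test peptide. Blank wells received no GDF-11 and no peptide. Plates were incubated 20 to 24 hours at 37°C with 5% CO2. Luminescence from One-Glo substrate was read to calculate percent inhibition.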

[1] = peptide 30nM, Myostatin 10 ng/mL, read-out: Myostatin Inhibition 30nM
[2] = peptide 100nM, Myostatin 10 ng/mL, read-out: Myostatin Inhibition 100nM
[3] = Table 7-3/7-4, myostatin 10 ng/mL, peptide at the higher of the 2 concentrations, read-out: inhibition rate (myostatin inhibition assay)
[4] = Table 7-3/7-4, myostatin 10 ng/mL, peptide at the lower of the 2 concentrations, read-out: inhibition rate (myostatin inhibition assay)
[5] = HepG2, first GDF-11 column of Table 7-3/7-4, GDF-11 10 ng/mL, peptide at the lower of the 2 concentrations
[6] = HepG2, second GDF-11 column of Table 7-3/7-4, GDF-11 10 ng/mL, peptide at the higher of the 2 concentrations

CCc1cccc(C[C@H]2C(=O)N[C@@H](C(=O)O)CSCC(=O)N(CCCC(=O)O)CC(=O)N[C@@H](C)C(=O)N[C@@H](Cc3ccc(-c4ccccc4)cc3)C(=O)N[C@@H](Cc3ccc(O)cc3)C(=O)N(C)[C@@H](Cc3ccc(O)cc3)C(=O)N[C@@H]([C@@H](C)CC)C(=O)N(C)CC(=O)N[C@@H](Cc3cccc(OCC(=O)O)c3)C(=O)N[C@@H](Cc3ccc(C(=O)O)cc3)C(=O)N[C@@H](CCCNC(=N)N)C(=O)N(C)[C@@H](Cc3ccccc3)C(=O)N[C@@H](CC(C)C)C(=O)N(C)[C@@H](C)C(=O)N2C)c1 [Myostatin_99_v113] ({CH2CO}-[Gly(N(CH2)3COOH)]A[Bip]Y[NMeY]I[Sar][Phe(3-OCH2COOH)][Phe(4-COOH)]R[NMeF]L[NMeA][X14][dC]-OH; thioether N-15)
inhibition at 0.03 µM (Myostatin; [1]): 35%
inhibition at 0.1 µM (Myostatin; [2]): 70%
inhibition at 0.03 µM (GDF-11): 0%
inhibition at 0.1 µM (GDF-11): 0%

CC[C@H](C)[C@@H]1NC(=O)[C@H](Cc2ccccc2)N(C)C(=O)[C@H](Cc2ccc(O)cc2)NC(=O)[C@H](Cc2c[nH]c3ccccc23)NC(=O)[C@H](CN)NC(=O)[C@H](C)NC(=O)CSC[C@H](C(=O)N[C@@H](CN)C(=O)N[C@@H](CN)C(N)=O)NC(=O)[C@H](Cc2ccccc2)N(C)C(=O)[C@H](C)N(C)C(=O)[C@H](CC(C)C)NC(=O)[C@H](Cc2ccccc2)N(C)C(=O)[C@H](CCCNC(=N)N)NC(=O)[C@H](Cc2ccc(O)cc2)NC(=O)[C@H](Cc2ccc(O)cc2)NC(=O)CN(C)C1=O [Myostatin_99_Variant_10] ({CH2CO}-A[Dap]WY[NMeF]I[Sar]YYR[NMeF]L[NMeA][NMeF][dC][Dap][Dap]-NH2; thioether N-15)
inhibition at 0.03 µM (Myostatin; [1]): 60%
inhibition at 0.1 µM (Myostatin; [2]): 89%
inhibition at 0.03 µM (GDF-11): 11%
inhibition at 0.1 µM (GDF-11): 29%

CCCCCCC[C@@H]1NC(=O)[C@H](Cc2ccncc2)N(C)C(=O)[C@H](CCCNC(=N)N)NC(=O)[C@H](Cc2ccc(C(=O)O)cc2)NC(=O)[C@H](Cc2cccc(OCC(=O)O)c2)NC(=O)CN(C)C(=O)[C@H]([C@@H](C)CC)NC(=O)[C@H](Cc2ccccc2)N(C)C(=O)[C@H](Cc2ccc(O)cc2)NC(=O)[C@H](Cc2c[nH]c3ccccc23)NC(=O)[C@H](C)NC(=O)[C@H](C)NC(=O)CSC[C@H](C(=O)O)NC(=O)[C@H](Cc2ccccc2)N(C)C(=O)[C@H](C)N(C)C1=O [Myostatin_99_v210] ({CH2CO}-AAWY[NMeF]I[Sar][Phe(3-OCH2COOH)][Phe(4-COOH)]R[NMe4Pal][X1][NMeA][NMeF][dC]-OH; thioether N-15)
inhibition at 0.03 µM (Myostatin; [1]): 95%
inhibition at 0.1 µM (Myostatin; [2]): 99%
inhibition at 0.03 µM (GDF-11): 0%
inhibition at 0.1 µM (GDF-11): 7%

CC[C@H](C)[C@@H]1NC(=O)[C@H](Cc2ccccc2)N(C)C(=O)[C@H](Cc2ccc(O)cc2)NC(=O)[C@H](Cc2c[nH]c3ccccc23)NC(=O)[C@H](C)NC(=O)CN(CCCC(=O)O)C(=O)CSC[C@H](C(N)=O)NC(=O)[C@H](Cc2ccccc2)N(C)C(=O)[C@H](C)N(C)C(=O)[C@H](CC(C)C)NC(=O)[C@H](Cc2ccccc2)N(C)C(=O)[C@H](CCCNC(=N)N)NC(=O)[C@H](Cc2cccnc2)NC(=O)[C@H](Cc2ccncc2)NC(=O)CN(C)C1=O [Myostatin_99_Variant_23] ({CH2CO}-[Gly(N(CH2)3COOH)]AWY[NMeF]I[Sar][4Pal][3Pal]R[NMeF]L[NMeA][NMeF][dC]-NH2; thioether N-15)
inhibition at 0.03 µM (Myostatin; [1]): 32%
inhibition at 0.1 µM (Myostatin; [2]): 71%
inhibition at 0.03 µM (GDF-11): 0%
inhibition at 0.1 µM (GDF-11): 0%

CCCCC[C@@H]1NC(=O)[C@H](Cc2ccccc2)N(C)C(=O)[C@H](CCCNC(=N)N)NC(=O)[C@H](Cc2cccnc2)NC(=O)[C@H](Cc2cccc(OCC(=O)O)c2)NC(=O)CN(C)C(=O)[C@H]([C@@H](C)CC)NC(=O)[C@H](Cc2ccccc2)N(C)C(=O)[C@H](Cc2ccc(O)cc2)NC(=O)[C@H](Cc2c[nH]c3ccccc23)NC(=O)[C@H](C)NC(=O)[C@H](C)NC(=O)CSC[C@H](C(=O)O)NC(=O)[C@H](Cc2ccccc2)N(C)C(=O)[C@H](C)N(C)C1=O [Myostatin_99_v205] ({CH2CO}-AAWY[NMeF]I[Sar][Phe(3-OCH2COOH)][3Pal]R[NMeF][Ahp(2)][NMeA][NMeF][dC]-OH; thioether N-15)
inhibition at 0.03 µM (Myostatin; [1]): 37%
inhibition at 0.1 µM (Myostatin; [2]): 69%
inhibition at 0.03 µM (GDF-11): 6%
inhibition at 0.1 µM (GDF-11): 1%

CCCCCCC[C@@H]1NC(=O)[C@H](Cc2ccccc2)N(C)C(=O)[C@H](CCCNC(=N)N)NC(=O)[C@H](Cc2ccc(C(=O)O)cc2)NC(=O)[C@H](Cc2cccc(OCC(=O)O)c2)NC(=O)[C@H](C)N(C)C(=O)[C@H]([C@@H](C)CC)NC(=O)[C@H](Cc2ccccc2)N(C)C(=O)[C@H](Cc2ccc(O)cc2)NC(=O)[C@H](Cc2c[nH]c3ccccc23)NC(=O)[C@H](C)NC(=O)CN(CCCC(=O)O)C(=O)CSC[C@H](C(=O)N[C@@H](CCCCNC(=O)N2CCN(CC(=O)O)CC2)C(=O)O)NC(=O)[C@H](Cc2ccccc2)N(C)C(=O)[C@H](C)N(C)C1=O [Myostatin_99_v428] ({CH2CO}-[Gly(N(CH2)3COOH)]AWY[NMeF]I[NMeA][Phe(3-OCH2COOH)][Phe(4-COOH)]R[NMeF][X1][NMeA][NMeF][dC]K([CO-Piperazinyl(4-CH2COOH)])-OH; thioether N-15)
inhibition at 0.1 µM (Myostatin; [3]): 99%
inhibition at 0.03 µM (Myostatin; [4]): 96%
inhibition (GDF-11; [5]): 0%
inhibition (GDF-11; [6]): 0%

CCCCCCC[C@@H]1NC(=O)[C@H](Cc2ccccc2)N(C)C(=O)[C@H](CCCNC(=N)N)NC(=O)[C@H](Cc2ccc(C(=O)O)cc2)NC(=O)[C@H](Cc2cccc(OCC(=O)O)c2)NC(=O)[C@H](C)N(C)C(=O)[C@H]([C@@H](C)CC)NC(=O)[C@H](Cc2ccccc2)N(C)C(=O)[C@H](Cc2ccc(O)cc2)NC(=O)[C@H](Cc2c[nH]c3ccccc23)NC(=O)[C@H](C)NC(=O)CN(CCCC(=O)O)C(=O)[C@H](C)N(C)C(=O)[C@@H](C)NC(=O)[C@H](Cc2ccccc2)N(C)C(=O)[C@H](C)N(C)C1=O [Myostatin_99_v450] (cyclo(AWY[NMeF]I[NMeA][Phe(3-OCH2COOH)][Phe(4-COOH)]R[NMeF][X1][NMeA][NMeF][dA][NMeA][Gly(N(CH2)3COOH)]))
inhibition at 0.1 µM (Myostatin; [3]): 100%
inhibition at 0.03 µM (Myostatin; [4]): 100%
inhibition (GDF-11; [5]): 0%
inhibition (GDF-11; [6]): 0%

CC[C@H](C)[C@@H]1NC(=O)[C@H](Cc2ccccc2)N(C)C(=O)[C@H](Cc2ccc(O)cc2)NC(=O)[C@H](Cc2c[nH]c3ccccc23)NC(=O)[C@H](C)NC(=O)[C@H](C)NC(=O)CSC[C@@H](C(N)=O)NC(=O)[C@H](Cc2ccccc2)N(C)C(=O)[C@H](C)N(C)C(=O)[C@H](CC(C)C)NC(=O)[C@H](Cc2ccccc2)N(C)C(=O)[C@H](CCCNC(=N)N)NC(=O)[C@H](Cc2ccc(O)cc2)NC(=O)[C@H](Cc2ccc(O)cc2)NC(=O)CN(C)C1=O [Myostatin_000099_02A] ({CH2CO}-AAWY[NMeF]I[Sar]YYR[NMeF]L[NMeA][NMeF]C-NH2; thioether N-15)
inhibition at 0.03 µM (Myostatin; [1]): 64%
inhibition at 0.1 µM (Myostatin; [2]): 89%
inhibition at 0.03 µM (GDF-11): 0%
inhibition at 0.1 µM (GDF-11): 5%

CCCCCCCCCC[C@@H]1NC(=O)[C@H](CC2CCCCC2)NC(=O)[C@H](CCCNC(=N)N)NC(=O)[C@H](Cc2ccc(C(=O)O)cc2)NC(=O)[C@H](CCCCNC(=O)N2CCN(CC(=O)O)CC2)NC(=O)CN(C)C(=O)[C@H]([C@@H](C)CC)NC(=O)[C@H](Cc2ccccc2)N(C)C(=O)[C@H](Cc2ccc(O)cc2)NC(=O)[C@H](Cc2c[nH]c3ccccc23)NC(=O)[C@H](C)NC(=O)[C@H](C)NC(=O)CSC[C@H](C(=O)N2CCN(CC(=O)O)CC2)NC(=O)[C@H](Cc2ccccc2)N(C)C(=O)[C@H](CCC(=O)O)N(C)C1=O [Myostatin_99_v269] ({CH2CO}-AAWY[NMeF]I[Sar]K([CO-Piperazinyl(4-CH2COOH)])[Phe(4-COOH)]R[Cha][Gly(decyl)][NMeE][NMeF][dC]-{Piperazinyl(4-CH2COOH)}; thioether N-15)
inhibition at 0.03 µM (Myostatin; [1]): 100%
inhibition at 0.1 µM (Myostatin; [2]): 100%
inhibition at 0.03 µM (GDF-11): 3%
inhibition at 0.1 µM (GDF-11): 59%
